According to PubChem BioAssay (NCI):
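Tested at 5 concentrations; 48 h exposure; 96-well plates; endpoints linearly interpolated, else capped at highest concentration. TGI marks complete inhibition of growth.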

Assays:
Assay in all cases: NCI-60 cell line screen, 48 h
[1] = system: CAKI-1 renal
[2] = system: OVCAR-8 ovarian
[3] = system: MDA-N
[4] = system: NCI/ADR-RES ovarian
[5] = system: HT29 colon
[6] = system: HCC-2998 colon
[7] = system: TK-10 renal
[8] = system: SN12C renal
[9] = system: LOX IMVI melanoma
[10] = system: UACC-257 melanoma
[11] = system: MCF7 breast
[12] = system: CCRF-CEM leukemia
[13] = system: T-47D breast
[14] = system: NCI-H522 lung
[15] = system: OVCAR-5 ovarian
[16] = system: SK-MEL-2 melanoma
[17] = system: MDA-MB-435
[18] = system: NCI-H23 lung
[19] = system: OVCAR-4 ovarian
[20] = system: HL-60(TB) leukemia
[21] = system: COLO 205 colon
[22] = system: A549 NSCLC
[23] = system: MOLT-4 leukemia
[24] = system: IGROV1 ovarian
[25] = system: HOP-62 NSCLC
[26] = system: UO-31 renal
[27] = system: SK-OV-3 ovarian
[28] = system: 786-0 renal
[29] = system: HOP-92 NSCLC
[30] = system: SF-268 CNS
[31] = system: SNB-75 CNS
[32] = system: HCT-15 colon
[33] = system: RXF 393 renal
[34] = system: PC-3 prostate
[35] = system: SW-620 colon
[36] = system: NCI-H460 lung
[37] = system: SNB-19 CNS
[38] = system: OVCAR-3 ovarian
[39] = system: SF-295 CNS
[40] = system: U251 CNS
[41] = system: ACHN renal
[42] = system: SK-MEL-5 melanoma
[43] = system: RPMI-8226 leukemia
[44] = system: DU-145 prostate
[45] = system: HCT-116 colon
[46] = system: K-562 leukemia
[47] = system: SF-539 CNS
[48] = system: EKVX NSCLC
[49] = system: KM12 colon
[50] = system: BT-549 breast
[51] = system: M14 melanoma
[52] = system: A498 renal
[53] = system: HS 578T breast
[54] = system: NCI-H226 lung
[55] = system: MALME-3M melanoma
[56] = system: UACC-62 melanoma
[57] = system: MDA-MB-231 breast
[58] = system: SK-MEL-28 melanoma
[59] = system: SR leukemia

Measured: TGI

COC(=O)c1ccc2c(c1)S/C(=C/c1ccc3ccc4cccc5ccc1c3c45)S2
61 µM: [56]
52.7 µM: [18]
46 µM: [31]
74.3 µM: [17]
76.2 µM: [4]
92.2 µM: [14]
57.3 µM: [49]
46.9 µM: [20]
49.3 µM: [38]
76.8 µM: [35]
not listed: [58] | [59]
> 100 µM: all other assays above

CC1CN=C(N(Cc2ccccc2)C(=O)Nc2ccc(Cl)c(Cl)c2)S1 (stereo not drawn)
69.3 µM: [8]
75 µM: [41]
68.8 µM: [58]
97.9 µM: [26]
86.6 µM: [57]
48.8 µM: [51]
51.9 µM: [42]
68.3 µM: [16]
54.5 µM: [29]
> 10 µM: [6] | [12] | [20] | [23] | [39]
not listed: [14] | [17] | [33] | [50] | [54] | [56]
> 100 µM: all other assays above

O=c1[nH]c(=S)nc2nc3c4ccc[nH]c4c4ccccc4c3nc12
66.1 µM: [20]
not listed: [4] | [9] | [13] | [16] | [46] | [54] | [57]
> 100 µM: all other assays above

COC(=O)C1=C(OC(=O)/C(=C/c2ccc(Cl)cc2)c2ccc(Cl)cc2)C(C(=O)OC)[C@]2(O)[C@@H](C(=O)OC)[C@H]1C[C@@H](c1ccccc1)[C@@H]2C(=O)OC (stereo partly drawn)
not listed: [6] | [11] | [12] | [26] | [28] | [29] | [43] | [52] | [53] | [55] | [59]
> 100 µM: all other assays above

OCCN(CCO)c1ncnc2nc[nH]c12
not listed: [16] | [20] | [31] | [47] | [59]
> 100 µM: all other assays above

c1ccc(CCc2cccnc2)nc1
not listed: [6] | [12] | [20] | [44]
> 100 µM: all other assays above

COC(=O)c1cc2c(c3c1CC(Cc1ccccc1)C3=O)CCC2 (stereo not drawn)
41.8 µM: [49]
78 µM: [29]
not listed: [1] | [16] | [26] | [50]
> 100 µM: all other assays above

O=[N+]([O-])c1ccc(-c2nc3ccc(Cl)cc3[nH]2)cc1
not listed: [6] | [12] | [15] | [16] | [20] | [33] | [40] | [46] | [49] | [52]
> 100 µM: all other assays above
